We go through 5 compounds from patent US20140079740A1 (priority 2012, published 2014).

The structures appear in SMILES notation. Where two headings read alike, the source gives them in different places.

Series [1] has as its system anesthesia and analgesia. The note with it: cited from earlier work.
For series [2] the following is noted: cited from earlier work; for T1/2: biological half-life of metabolite.
The subject of series [3] is neuropathic pain. The note with it: cited from earlier work.
A short description of series [4]: Dose linearity test for oral transmucosal S-ketamine formulations.

Turning to `CNC1(c2ccccc2Cl)CCCCC1=O` (racemic) [Ketamine, dl-2-(o-chloro-phenyl)-2(methylamino)cyclohexanone], the duration of anesthesia in series [1] (IM administration) was 12 to 25 min. Also, in series [1] (IM route), the time to anesthesia is 3 to 4 min. Also, in series [1] (administered intravenously), the time to anesthesia is ≤ 0.5 min and the “time to sensation of dissociation” value is 15 s. Further, in series [1] (following oral dose), the “ketamine concentration at effective analgesia” value is 40 ng/mL. Besides, in series [1] (iv bolus, dosage 2 mg/kg), the Time to onset is 30 to 60 s and the duration of effect was 10 to 15 min. Further, the “plasma levels at which analgesic effects were observed” value in series [1] (sum of S- and R-isomer, intramuscular and intravenous administration) is 100 to 200 ng/mL. The T½ beta in series [2] (biological half-life) is 4.98 (1.56) h. In series [2] (in vivo), the Clearance was 12 to 17 mL/kg/min, the Metabolites excreted fecally is 5%, the Metabolites excreted renally is 90% and the “Urinary excretion of unchanged drug” value is 3-4%. Further, in series [2] (in vivo), the “administered dose excreted unchanged in urine” value is 4%, the alpha phase half-life is 10 to 15 min, the “apparent volume of distribution” value is 3.3 L/kg and the beta phase half-life was 2 to 3 h. For the same compound, in series [2] (in vivo), the clearance rate was 1.3 L/min, the distribution half-life is 7 to 11 min, the “duration of alpha phase of distribution” value is recorded as “about 45 minutes” and the elimination half-life was 2 to 3 h. The elimination halftime entry in series [2] (in vivo) is listed as “about 2.5 hours”. In series [2] (intramuscular dose), the Bioavailability was 93%. For the same compound, the “time of peak plasma concentrations” value in series [2] (intramuscular injection) is 5 to 10 min. The Bioavailability in series [2] (intranasal dose) is 25-50%. For the same compound, the “time of peak plasma concentrations” value in series [2] (intravenous administration) is recorded as ≤ 1 min. The “time of peak plasma concentrations” value in series [2] (oral administration) is 30 min. Besides, in series [2] (oral dose), the Bioavailability was 20±7%. Besides, in series [2] (orally administered, extensive first-pass metabolism), the Bioavailability entry is reported as “approximately 16%”. Besides, the “time of peak absorption” value in series [2] (rectal, in children) is 45 min. Besides, the “oral bioavailability (AUC) relative to intravenous injection” value in series [2] (single oral dose of 0.5 mg/kg) is “about 20%”.

Turning to `NC1(c2ccccc2Cl)CCC=CC1=O` (stereo not drawn) [Dehydronorketamine], the T1/2 in series [2] was 6.91 (1.71) h.

Regarding `NC1(c2ccccc2Cl)CCCCC1=O` (stereo not drawn) [Norketamine], the “peak plasma concentrations of norketamine” value in series [2] (after oral administration of ketamine) was 200 ng/mL. For the same compound, the T1/2 in series [2] was 5.32 (1.70) h.

On to `CN[C@]1(c2ccccc2Cl)CCCCC1=O` [S-Ketamine], for which, in series [1] (in vivo), the “therapeutic index relative to R-Ketamine” value was 2.5 times. The “time to maximal pain reduction” value in series [3] (after nasal application) was 60 min. Also, the “plasma concentrations of (S)-norketamine” value in series [3] (between 30 and 180 min after intranasal administration) was > 10 ng/mL. Besides, in series [3] (intranasal), the “time to (S)-ketamine plasma-peak” value is on record as ≤ 15 min and the “time to decline of plasma level below 10 ng/ml” value is ≤ 60 min. The “duration of reduction of ongoing neuropathic pain” value in series [3] (low-dose intranasal administration) was 2 to 3 h. Moreover, the “range of dose linearity” value in series [4] fell in the range of 10 to 300 mg.

`N[C@]1(c2ccccc2Cl)CCCCC1=O` [S-norketamine]: the “analgesic and anaesthetic effect relative to S-ketamine” value in series [1] (in vivo) is listed as “five times weaker”.
